Test results from patent US20240050498A1, “SYNERGISTIC COMPOSITION OF PHAGES AND ITS FORMATION METHOD” (Proteon Pharmaceuticals S.A., priority 2020, published 2024).

Assays:
APEC strains = conditions: nearly 150 APEC strains, in vitro [Oliviera A. et al., 2009]; cited from earlier work
selected APEC strains = test: Sensitivity of all selected APEC strains to drugs (disk diffusion) and to BAFACOL, summary; format: cell-based, Escherichia coli; conditions: all 12 selected strains
Experimental: BAFACOL preparation with the total titer of 1×10^8 PFU/ml was used in the tests.
(§1) The drug sensitivity of APEC strains was tested with a disk diffusion method, according to CLSI recommendations (Clinical Laboratory Standards Institute; 2008 document: Performance standards for antimicrobial disk and dilution susceptibility tests for bacteria isolated from animals; approved standard, 3rd Ed. CLSI document M31-A3. Clinical and Laboratory Standards Institute, Wayne, PA.). The disk diffusion method used disks soaked with 10 selected drugs (Table 9).
The other tested APEC strains were resistant to 6-8 test antimicrobial drugs.

E. coli strain 130PP2017 = test: Sensitivity of APEC strain to drugs (disk diffusion) and to BAFACOL; format: cell-based, Escherichia coli; conditions: CLSI, disk content as in column head
Experimental: as §1, with “[…]-A3.” for “M31-A3.”

| SMILES | Drug sensitivity of all selected APEC strains (selected APEC strains) | further results |
| --- | --- | --- |
| CCN1CCN(c2cc3c(cc2F)c(=O)c(C(=O)O)cn3C2CC2)CC1 [enrofloxacin] |  | Share of studied APEC strains that were sensitive (APEC strains): more than 50% |
| [H]/N=C(/N)N[C@H]1[C@H](O)[C@@H](O)[C@H](O[C@@H]2O[C@@H](C)[C@](O)(C=O)[C@H]2O[C@@H]2O[C@@H](CO)[C@H](O)[C@@H](O)[C@@H]2NC)[C@@H](N/C(N)=N\[H])[C@@H]1O [Streptomycin] | resistant |  |
| CN[C@@H]1[C@@H](O[C@H]2O[C@H](CO)[C@@H](N)[C@H](O)[C@H]2O)OC2C[C@@H](N)[C@@H](O[C@H]3[C@H](O)[C@@H](O)[C@H](N)C[C@@H]3N)OC2[C@@H]1O (some centres unmarked) [Apramycin] |  | Sensitivity to drug (R/I/S) (E. coli strain 130PP2017): sensitive |
| CCn1cc(C(=O)O)c(=O)c2ccc(C)nc21 [Nalidixic acid] | resistant |  |
| CC1(C)S[C@@H]2[C@H](NC(=O)[C@H](N)c3ccccc3)C(=O)N2[C@H]1C(=O)O [Ampicillin] | resistant |  |
